Data on four molecules can be found in patent US11779546B2, “Disassembly of cholesterol crystals” (IP SCIENCE LIMITED, priority 2018, dated 2023).

Data set [1] is described as follows: Disassembly of crystallised cholesterol (Sigma) in ethanol solutions of test substance. In kind it is physicochemical. The conditions noted are these: 100 mg crystallised cholesterol; for ratio of carotenoid to cholesterol at which complete disaggregation of the crystals was observed: 20 ml ethanol, 20-22° C., gentle stirring for a couple of minutes; for effect on size or number of the cholesterol crystals: 20 ml ethanol solutions with different concentrations, room temperature. The method, then: To 100 mg of crystallised cholesterol (Sigma) 20 ml of ethanol solutions with different concentrations of lycopene were added. As a control, 20 ml of the same ethanol was used but without any lycopene. After gentle stirring for a couple of minutes, under the room temperature of about 20-22° C., recording of the results was made.
To 100 mg of crystallised cholesterol (Sigma) 20 ml of ethanol solutions with different concentrations of lutein were added. As a control, 20 ml of the same ethanol was used but without any lutein. After gentle stirring for a couple of minutes, at a room temperature of about 20-22° C., recording of the results was made.
To 100 mg of crystallised cholesterol (Sigma) 20 ml of ethanol solutions with different concentrations of a number of biologically active hydrophobic substances and oils were added. As a control, 20 ml of the same ethanol was used but without any additives. After gentle stirring for a couple of minutes, at a room temperature of about […], recording of the results was made.

Data set [2] can be described thus: Disassembly of cholesterol crystals in the arterial wall (pieces of atherosclerotic abdominal aorta incubated 13 days). Set-up: species or system human. The note with it: 1 μg/ml lycopene in ethanol diluted by PBS 10 fold, room temperature. The text has this: It was important to confirm whether carotenoids, and lycopene in particular, can affect folding of cholesterol crystals, which are not just synthesized by a manufacturer, but produced naturally, and particularly those, which are developed during pathological process in human. For this purpose, we used pieces of atherosclerotic abdominal aorta, which were obtained during a combined vascular graft and by-pass surgery.
(§1) This was in terms of their stage of development, with prominently featured cholesterol crystals of similar size, embedded into the atheromatous tissues of the aorta wall. As a control material we collected pieces of the atherosclerotic abdominal aorta containing calcium phosphate crystals.
(§2) Firstly, an ethanol solution 1 μg/ml of lycopene was prepared. It was then diluted by PBS 10 fold. As a control, a solution was made with the same ratio ethanol to PBS but without lycopene. Then pieces of aorta were incubated, in light protected containers at the room temperature of about […] for 13 days.

Data set [3] in a line: Control: atherosclerotic abdominal aorta pieces containing calcium phosphate crystals incubated with lycopene. Also on record: species or system human. The conditions noted are these: lycopene-ethanol-PBS, 13 days, room temperature. How it is done:
as §1, §2

The nature of data set [4]: Prevention of or interference into the formation of cholesterol crystals (evaporation of ethanol cholesterol solution). The format is physicochemical. The note with it: for effect on rate / formation of cholesterol crystallisation: less than one molecule of lycopene per million molecules of cholesterol. How it is done: A solution of 198 ml of 1 g of cholesterol (Sigma) in 99% ethanol was divided in two equal parts. In one part 1 ml of ethanol containing […] of the dissolved lycopene was added. This provided ratio of lycopene to cholesterol as 1:10^6. Into the other part, the control, 1 ml of the ethanol itself was added. Then both samples were left in the dark room for evaporation under 20-22° C. Recording of the status of the both samples were made at least on a daily or even shorter intervals.

The nature of data set [5]: Changes of physical properties of cholesterol crystals formed in presence of lycopene. The format is physicochemical. The text has this:
In a range of experiments where ratio of cholesterol to lycopene varied, from 1,000 to at least 10,000,000 molecules of the former to 1 molecule of the latter, noticeable changes in the physical properties of crystals were observed.
In all control experiments, cholesterol crystallised into a plate-like crystals, see FIG. 2B and FIG. 2D. Sometimes they could create a thick flat plate of few centimetres across, like the one on the bottom of the glass in the experiment 2, FIG. 2C. However, when lycopene was present in the medium a formation of a new type of crystals was observed.
Under the light and confocal microscopy these difference between two types of cholesterol crystals, in size and shape, are more evident (FIGS. 5A-F and 6A-B).

Entries after “also recorded” stand apart in the source; their conditions may differ.

For `CC1=C[C@H](O)CC(C)(C)[C@H]1/C=C/C(C)=C/C=C/C(C)=C/C=C/C=C(C)/C=C/C=C(C)/C=C/C1=C(C)C[C@@H](O)CC1(C)C` [lutein], the “ratio of carotenoid to cholesterol at which complete disaggregation of the crystals was observed” value in data set [1] was 1 to 20,000.
In the case of `CC(C)=CCC/C(C)=C/C=C/C(C)=C/C=C/C(C)=C/C=C/C=C(C)/C=C/C=C(C)/C=C/C=C(\C)CCC=C(C)C` [lycopene], the “ratio of carotenoid to cholesterol at which complete disaggregation of the crystals was observed” value in data set [1] is on record as 1 to 100,000. Also, in data set [2], the “size of the remaining crystalloid structures” value was “reduced by at least two-fold” and the “size of the surrounding cholesterol-rich atheromatous mass of the lesion” value is listed as “reduced by about two-fold”. Besides, the “number of crystalloid structures in the lesion at end of incubation” value in data set [2] (three structures at start) is “only two”. Moreover, the “effect on size or shape of calcium phosphate crystals” value in data set [3] is recorded as “did not affect size or shape of calcium phosphate crystals”. In addition, the “effect on rate / formation of cholesterol crystallisation” value in data set [4] is “significantly affect the rate of its crystallisation”. For the same molecule, the “effect on rate / formation of cholesterol crystallisation” value in data set [4] (listed as Lycopene) was “prevents or slows down formation of cholesterol crystallisation”. Besides, the “day by which crystallisation was completed” value in data set [4] (lycopene to cholesterol 1:10^6, ethanol evaporation in the dark, 20-22° C., control: 12th day) is at most 14 days. In data set [4] (lycopene to cholesterol 1:10^6, ethanol evaporation in the dark, 20-22° C., control: after two days), the “day on which floating cholesterol crystals started to appear” value is 6 days. For the same molecule, the “incorporation into newly formed cholesterol crystal structures” value in data set [5] is “able to incorporate into newly formed crystal structures”. In addition, in data set [5] (cholesterol to lycopene 1,000 to at least 10,000,000 : 1, controls plate-like crystals), the “type (size and shape) of cholesterol crystals formed” value is “significantly smaller and in a shape of needle- or narrow tube-like crystals; also recorded: needle-like crystals”.
Consider “phosphatidylcholine [reference compound]”, for which the “effect on size or number of the cholesterol crystals” value in data set [1] is given as “not able to affect cholesterol crystals”.
As for tocopherol [reference compound], the “effect on size or number of the cholesterol crystals” value in data set [1] was “ineffective”.
